Where two headings read alike, the source gives them in different places.
Assays:
HBV (HepAD38 cells) = experiment: HBV replication assay: determination of HBV DNA from the supernatants of HepAD38 cells; type: cell-based; conditions: Hepatitis B virus, 144 h, HBV DNA in HepAD38 supernatant at day 6, qPCR, read-out: Cell activity
Description: Determination of HBV DNA from the Supernatants of HepAD38 Cells
The anti-HBV activity was analysed in the stable transfected cell line HepAD38, which has been described to secrete high levels of HBV virion particles (Ladner et al., 1997). In brief, HepAD38 cells were cultured at 37° C. at 5% CO2 and 95% humidity in 200 μl maintenance medium, which was Dulbecco's modified Eagle's medium/Nutrient Mixture F-12 (Gibco, Karlsruhe), 10% fetal bovine serum (PAN Biotech Aidenbach) supplemented with 50 μg/ml penicillin/streptomycin (Gibco, Karlsruhe), 2 mM L-glutamine (PAN Biotech, Aidenbach), 400 μg/ml G418 (AppliChem, Darmstadt) and 0.3 μg/ml tetracycline. Cells were subcultured once a week in a 1:5 ratio, but were usually not passaged more than ten times. For the assay 60,000 cells were seeded in maintenance medium without any tetracycline into each well of a 96-well plate and treated with serial half-log dilutions of test compound. To minimize edge effects the outer 36 wells of the plate were not used but were filled with assay medium. On each assay plate six wells for the virus control (untreated HepAD38 cells) and six wells for the cell control (HepAD38 cells treated with 0.3 μg/ml tetracycline) were allocated, respectively. In addition, one plate set with reference inhibitors like BAY 41-4109, entecavir, and lamivudine instead of screening compounds were prepared in each experiment. In general, experiments were performed thrice in triplicates. At day 6 HBV DNA from 100 μl filtrated cell culture supernatant (AcroPrep Advance 96 Filter Plate, […] Supor membran, PALL GmbH, Dreieich) was automatically purified on the MagNa Pure LC instrument using the MagNA Pure 96 DNA and Viral NA Small Volume Kit (Roche Diagnostics, Mannheim) according to the instructions of the manufacturer. EC50 values were calculated from relative copy numbers of HBV DNA In brief, 5 μl of the 100 μl eluate containing HBV DNA were subjected to PCR LC480 Probes Master Kit (Roche) together with 1 μM antisense primer […], 0.5 μM sense primer […], 0.3 μM hybprobes […]-FL and LC640-[…]-PH (TIBMolBiol, Berlin) to a final volume of 12.5 μl. The PCR was performed on the Light Cycler 480 real time system (Roche Diagnostics, Mannheim) using the following protocol: Pre-incubation for 1 min at 95° C., amplification: 40 cycles×(10 sec at 95° C., 50 sec at 60° C., 1 sec at 70° C.), cooling for 10 sec at 40° C. Viral load was quantitated against known standards using HBV plasmid DNA of pCH-9/3091 (Nassal et al., 1990, Cell 63: 1357-1363) and the LightCycler 480 SW 1.5 software (Roche Diagnostics, Mannheim) and EC50 values were calculated using non-linear regression with GraphPad Prism 6 (GraphPad Software Inc., La Jolla, USA).

[1] = molecular target: T1, HBV core protein (C-terminal truncated core protein, 149 amino acids of the N-terminal assembly domain, BODIPY-FL labelled) (UniProt P03146); experiment: Biochemical capsid assembly assay (fluorescence quenching)
T1 construct: fused on or other part: A single cysteine added after residue 149, at position 150; It carries the BODIPY-FL maleimide label
T1 sequence (P03146 whole entry, the tested form may be a part): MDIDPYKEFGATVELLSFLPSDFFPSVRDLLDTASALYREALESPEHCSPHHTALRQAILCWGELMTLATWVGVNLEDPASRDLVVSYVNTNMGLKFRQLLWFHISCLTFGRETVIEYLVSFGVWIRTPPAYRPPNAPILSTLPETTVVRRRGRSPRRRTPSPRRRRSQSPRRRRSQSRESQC
Outline: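 Fluorescence quenching of BODIPY-FL-labelled core dimers (1.0 to 2.0 μM) in 50 mM HEPES pH 7.5; compounds at 8 concentrations, 0.5 log-unit dilutions from top 100, 31.6 or 10 μM, 0.5% DMSO. Assembly started with NaCl to […]; fluorescence (ex 477/em 525 nm) read after 6 min. EC50 by non-linear regression.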

[2] = assembly started with NaCl, fluorescence read after 6 min, read-out: Assembly activity
[3] = read-out: Assembly activity, assembly started with NaCl, fluorescence read after 6 min

| Compound | EC50 (HBV (HepAD38 cells)) [µM] | IC50 [1, 2] [µM] | IC50 [1, 3] [µM] |
| --- | --- | --- | --- |
| CN(C(=O)c1cnn2c1CN(C(=O)c1cc3c(Cl)cc(F)cc3[nH]1)CC2)C1(c2ccc(C(=O)O)cc2)CC1 [Example 81, 4-{1-[N-methyl-5-(4-chloro-6-fluoro-1H-indole-2-carbonyl)-4H,5H,6H,7H-pyrazolo[1,5-a]pyrazine-3-amido]cyclopropyl}benzoic acid] | < 1 | < 5 | – |
| Cc1c(F)ccc2[nH]c(C(=O)N3CCc4onc(C(=O)N[C@H](C)C(F)(F)F)c4C3)cc12 [Example 106, 5-(5-fluoro-4-methyl-1H-indole-2-carbonyl)-N-[(2R)-1,1,1-trifluoropropan-2-yl]-4H,5H,6H,7H-[1,2]oxazolo[4,5-c]pyridine-3-carboxamide] | < 1 | < 5 | – |
| CN(CCO)C(=O)c1noc2c1CN(C(=O)c1cc3ccccc3[nH]1)CC2 [Example 22, N-(2-hydroxyethyl)-5-(1H-indole-2-carbonyl)-N-methyl-4H,5H,6H,7H-[1,2]oxazolo[4,5-c]pyridine-3-carboxamide] | < 1 | < 5 | – |
| O=C(c1cc2ccccc2[nH]1)N1CCc2onc(C(=O)N3CCC(O)CC34CC4)c2C1 (centres unmarked) [Example 95, 4-[5-(1H-indole-2-carbonyl)-4H,5H,6H,7H-[1,2]oxazolo[4,5-c]pyridine-3-carbonyl]-4-azaspiro[2.5]octan-7-ol] | < 1 | < 5 | – |
| CN(C(=O)c1cnn2c1CN(C(=O)c1cc3ccccc3[nH]1)CC2)C1(COc2ccc(C(=O)O)cc2)CC1 [Example 47, 4-({1-[N-methyl-5-(1H-indole-2-carbonyl)-4H,5H,6H,7H-pyrazolo[1,5-a]pyrazine-3-amido]cyclopropyl}methoxy)benzoic acid] | < 1 | < 5 | – |
| COCC1(N(C)C(=O)c2noc3c2CN(C(=O)c2cc4c(F)cc(F)cc4[nH]2)CC3)CC1 [Example 6, 5-(4,6-difluoro-1H-indole-2-carbonyl)-N-[1-(methoxymethyl)cyclopropyl]-N-methyl-4H,5H,6H,7H-[1,2]oxazolo[4,5-c]pyridine-3-carboxamide] | < 1 | < 5 | – |
| CN1C(=O)c2c3c(nn2CCC12CC2)CCN(C(=O)c1cc2cc(F)c(Cl)cc2[nH]1)C3 [Example 64, 4′-(6-chloro-5-fluoro-1H-indole-2-carbonyl)-13′-methyl-4′,8′,9′,13′-tetraazaspiro[cyclopropane-1,12′-tricyclo[7.5.0.0^2, Q]tetradecane]-1′,7′-dien-14′-one] | < 1 | < 5 | – |
| CN(C(=O)c1cnn2c1CN(C(=O)c1cc3c(F)c(F)ccc3[nH]1)CC2)C1(c2cccc(C(=O)O)c2)CC1 [Example 42, 3-{1-[N-methyl-5-(4,5-difluoro-1H-indole-2-carbonyl)-4H,5H,6H,7H-pyrazolo[1,5-a]pyrazine-3-amido]cyclopropyl}benzoic acid] | 1 to 10 | < 5 | – |
| CN1C(=O)c2c3c(nn2CC12CC2)CCN(C(=O)c1cc2c(F)cccc2[nH]1)C3 [Example 37, 12′-(4-fluoro-1H-indole-2-carbonyl)-4′-methyl-4′,7′,8′,12′-tetraazaspiro[cyclopropane-1,5′-tricyclo[7.4.0.0^2, □]tridecane]-1′,8′-dien-3′-one] | < 1 | – | < 5 |
| CN(C(=O)c1noc2c1CN(C(=O)c1cc3ccccc3[nH]1)CC2)C1([C@H]2OC[C@H](N)CO2)CC1 [Example 108, 5-(1H-indole-2-carbonyl)-N-methyl-N-{1-[(2r,5r)-5-amino-1,3-dioxan-2-yl]cyclopropyl}-4H,5H,6H,7H-[1,2]oxazolo[4,5-c]pyridine-3-carboxamide] | < 1 | < 5 | – |
| CN1C(=O)c2c3c(nn2CCC12CC2)CCN(C(=O)c1cc2c(Cl)cccc2[nH]1)C3 [Example 68, 4′-(4-chloro-1H-indole-2-carbonyl)-13′-methyl-4′, 8′,9′,13′-tetraazaspiro[cyclopropane-1,12′-tricyclo[7.5.0.0^2,7]tetradecane]-1′,7′-dien-14′-one] | < 1 | < 5 | – |
| CN(C(=O)c1onc2c1CN(C(=O)c1cc3ccccc3[nH]1)CC2)C1CC1 [Example 39, N-cyclopropyl-5-(1H-indole-2-carbonyl)-N-methyl-4,5,6,7-tetrahydroisoxazolo[4,3-c]pyridine-3-carboxamide] | < 1 | – | < 5 |
| CCc1cc(F)cc2[nH]c(C(=O)N3CCc4onc(C(=O)N(C)C5(COC)CC5)c4C3)cc12 [Example 4, 5-(4-ethyl-6-fluoro-1H-indole-2-carbonyl)-N-[1-(methoxymethyl)cyclopropyl]-N-methyl-4H,5H,6H,7H-[1,2]oxazolo[4,5-c]pyridine-3-carboxamide] | < 1 | < 5 | – |
| C[C@@H](NC(=O)c1onc2c1CN(C(=O)c1cc3ccccc3[nH]1)CC2)C(F)(F)F [Example 40, 5-(1H-indole-2-carbonyl)-N-[(2R)-1,1,1-trifluoropropan-2-yl]-4H,5H,6H,7H-[1,2]oxazolo[4,3-c]pyridine-3-carboxamide] | < 1 | < 5 | – |
| CN(C(=O)c1cnn2c1CN(C(=O)c1cc3c(F)c(F)ccc3[nH]1)CC2)C1(c2ccc(C(=O)O)cc2)CC1 [Example 52, 4-{1-[N-methyl-5-(4,5-difluoro-1H-indole-2-carbonyl)-4H,5H,6H,7H-pyrazolo[1,5-a]pyrazine-3-amido]cyclopropyl}benzoic acid] | < 1 | < 5 | – |
| CN(C(=O)c1cnn2c1CN(C(=O)c1cc3ccccc3[nH]1)CC2)C1(c2cc(C(=O)O)on2)CC1 [Example 84] | < 1 | – | < 5 |
| CN(C(=O)c1cnn2c1CN(C(=O)c1cc3cc(F)c(Cl)cc3[nH]1)CC2)C1(c2ccc(C(=O)O)cc2)CC1 [Example 50, 4-{1-[N-methyl-5-(6-chloro-5-fluoro-1H-indole-2-carbonyl)-4H,5H,6H,7H-pyrazolo[1,5-a]pyrazine-3-amido]cyclopropyl}benzoic acid] | < 1 | < 5 | – |
| CN1C(=O)c2c3c(nn2CC12CC2)CCN(C(=O)c1cc2cc(F)ccc2[nH]1)C3 [Example 79, 12′-(5-fluoro-1H-indole-2-carbonyl)-4′-methyl-4′,7′, 8′,12′-tetraazaspiro[cyclopropane-1,5′-tricyclo[7.4.0.0^2,7]tridecane]-1′,8′-dien-3′-one] | < 1 | – | < 5 |
| COCC1(N(C)C(=O)c2onc3c2CN(C(=O)c2cc4ccccc4[nH]2)CC3)CC1 [Example 38, 5-(1H-indole-2-carbonyl)-N-[1-(methoxymethyl)cyclopropyl]-N-methyl-4H,5H,6H,7H-[1,2]oxazolo[4,3-c]pyridine-3-carboxamide] | < 1 | < 5 | – |
| CN(C(=O)c1cnn2c1CN(C(=O)c1cc3c(Cl)cc(Cl)cc3[nH]1)CC2)C1(c2ccc(C(=O)O)cc2)CC1 [Example 69, 4-{1-[N-methyl-5-(4,6-dichloro-1H-indole-2-carbonyl)-4H,5H,6H,7H-pyrazolo[1,5-a]pyrazine-3-amido]cyclopropyl}benzoic acid] | < 1 | – | < 5 |
| CN(C(=O)c1cnn2c1CN(C(=O)c1cc3c(Cl)cccc3[nH]1)CC2)C1(c2ccc(C(=O)O)cc2)CC1 [Example 51, 4-{1-[N-methyl-5-(4-chloro-1H-indole-2-carbonyl)-4H,5H,6H,7H-pyrazolo[1,5-a]pyrazine-3-amido]cyclopropyl}benzoic acid] | < 1 | < 5 | – |
| CN(C(=O)c1cnn2c1CN(C(=O)c1cc3c(F)cc(F)cc3[nH]1)CC2)C1(c2ccc(C(=O)O)cc2)CC1 [Example 75, 4-{1-[N-methyl-5-(4,6-difluoro-1H-indole-2-carbonyl)-4H,5H,6H,7H-pyrazolo[1,5-a]pyrazine-3-amido]cyclopropyl}benzoic acid] | < 1 | < 5 | – |
